Experimental data from patent publication US6939888B2, “1-H-3-arylpirrolidine-2,4-dione derivatives” (Bayer Aktiengesellschaft, priority 1994, dated 2005).

Tests used:
[1] = test system: caterpillars of the diamond-back moth (Plutella maculipennis); test: Plutella test (cabbage leaf dip); format: in vivo; conditions: after 7 days; concentration of active compound 0.001%; cabbage leaves (Brassica olearacea) dipped
Method: Plutella Test [table] To produce a suitable preparation of active compound, 1 part by weight of active compound is mixed with the stated amount of solvent and the stated amount of emulsifier, and the concentrate is diluted with water to the desired concentration. Cabbage leaves (Brassica olearacea) are treated by being dipped into the preparation of active compound of the desired concentration and are infested with caterpillars of the diamond-back moth (Plutella maculipennis) while the leaves are still moist. After the specified periods of time, the destruction in % is determined. 100% means that all the caterpillars have been killed; 0% means that none of the caterpillars have been killed.

[2] = test system: greenhouse red spider mite (Tetranychus urticae); test: Tetranychus test (OP resistant), sprayed bean plants; format: in vivo; conditions: after 7 days; concentration of active compound 0.00016%; bean plants (Phaseolus vulgaris) sprayed, all development stages
Method: Tetranychus Test (OP Resistant)
To produce a suitable preparation of active compound, 1 part by weight of active compound is mixed with the stated amount of solvent and the stated amount of emulsifier, and the concentrate is diluted with emulsifier-containing water to the desired concentration.
Bean plants (Phaseolus vulgaris) which are severely infested with all development stages of the greenhouse red spider mite (Tetranychus urticae) are sprayed with a preparation of active compound of the desired concentration.
After the specified periods of time, the destruction in % is determined. 100% means that all the spider mites have been killed; 0% means that none of the spider mites have been killed.

Row | Structure (SMILES) | destruction rate [1] | destruction rate [2]
1 | CC(=O)OC1=C(c2c(C)cc(C)cc2C)C(=O)NC12CCCCC2 [(B)] | 10% | 
2 | CCOC(=O)OC1=C(c2ccc(Cl)cc2Cl)C(=O)NC1(C)C(C)C (stereo not drawn) [(E)] |  | no destruction
3 | CC(C)C1(C)NC(=O)C(c2ccc(Cl)cc2Cl)=C1OC(=O)C(C)(C)C (stereo not drawn) [(D)] |  | no destruction
